Reference: patent US20120108422A1, “Antifungal 1,2,4-triazolyl Derivatives” (BASF SE, priority 2009, published 2012)

Assay: physchem

Row | logP | Structure (SMILES)
1 | 3.8 | CC(Cc1ccc(F)cc1F)CC(O)(Cn1nc[nH]c1=S)C(C)(C)C (centres unmarked) [Example 2, 2-[2-tert-butyl-5-(2,4-difluorophenyl)-2-hydroxy-4-methyl-pentyl]-2,4-dihydro-[1,2,4]triazole-3-thione]
2 | 3.3 | CC(C)(C)C(O)(CCCc1ccc(F)cc1F)Cn1nc[nH]c1=S (centres unmarked) [Example 10, 2-[2-tert-butyl-5-(2,4-difluoro-phenyl)-2-hydroxy-pentyl]-2,4-dihydro-[1,2,4]triazole-3-thione]
3 | 3.7 | CC(C)(C)C(O)(CCCCc1ccc(F)cc1)Cn1nc[nH]c1=S (centres unmarked) [Example 15, 1-[2-tert-Butyl-6-(4-fluorophenyl)-2-hydroxyhexyl]-1H-1,2,4-triazole-5(4H)-thione]
4 | 3.6 | CC(C)(C)C(O)(CCCCc1ccccc1)Cn1nc[nH]c1=S (centres unmarked) [Example 16, 1-[2-tert-butyl-6-phenyl-2-hydroxyhexyl]-1H-1,2,4-triazole-5(4H)-thione]
5 | 4.2 | CC(C)(C)C(O)(CCCCc1ccc(Cl)cc1)Cn1nc[nH]c1=S (centres unmarked) [Example 17, 1-[2-tert-butyl-6-(4-chlorophenyl)-2-hydroxyhexyl]-1H-1,2,4-triazole-5(4H)-thione]
6 | 4 | CC(C)(C)C(O)(CCCCc1ccccc1Cl)Cn1nc[nH]c1=S (centres unmarked) [Example 18, 1-[2-tert-butyl-6-(2-chlorophenyl)-2-hydroxyhexyl]-1H-1,2,4-triazole-5(4H)-thione]
7 | 3.4 | CC(C)(C)C(O)(CCCCc1ccccc1F)Cn1nc[nH]c1=S (centres unmarked) [Example 19, 1-[2-tert-butyl-6-(2-fluorophenyl)-2-hydroxyhexyl]-1H-1,2,4-triazole-5(4H)-thione]
8 | 4.7 | CC(C)(C)C(O)(CCCCc1ccc(Cl)cc1Cl)Cn1nc[nH]c1=S (centres unmarked) [Example 20, 1-[2-tert-butyl-6-(2,4-dichlorophenyl)-2-hydroxyhexyl]-1H-1,2,4-triazole-5(4H)-thione]
9 | 4 | CC(C)(C)C(O)(CCCCCc1ccc(F)cc1)Cn1nc[nH]c1=S (centres unmarked) [Example 21, 1-[2-tert-butyl-7-(4-fluorophenyl)-2-hydroxyheptyl]-1H-1,2,4-triazole-5(4H)-thione]
10 | 4.2 | CC(C)(C)C(O)(CCCCCc1ccccc1F)Cn1nc[nH]c1=S (centres unmarked) [Example 22, 1-[2-tert-butyl-7-(2-fluorophenyl)-2-hydroxyheptyl]-1H-1,2,4-triazole-5(4H)-thione]
11 | 4.4 | CC(C)(C)C(O)(CCCCCc1ccc(Cl)cc1)Cn1nc[nH]c1=S (centres unmarked) [Example 23, 1-[2-tert-butyl-7-(4-chlorophenyl)-2-hydroxyheptyl]-1H-1,2,4-triazole-5(4H)-thione]
